± gives the standard deviation of the averaged measurements.
What was measured:
PLX-4720 = compound: CCCS(=O)(=O)Nc1ccc(F)c(C(=O)c2c[nH]c3ncc(Cl)cc23)c1F [PLX-4720]; assay: surviving fraction relative to DMSO-only wells; higher = less growth inhibition; conditions: exposure time: 5 days
How it was run: (§1)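 Surviving fraction is CellTiter-Glo luminescence divided by the median of wells given DMSO only. For this, log-phase tumour cell lines went into 384-well plates at 250–500 cells per well and, 24 hours later, into five days of continuous inhibitor exposure at 0.5, 1, 5, 10, 50, 100, 500 and 1000 nM. Lines were screened three times and retained only if replicate Pearson r >0.7 and median Z' >0.3.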

METHOTREXATE = compound: CN(Cc1cnc2nc(N)nc(N)c2n1)c1ccc(C(=O)N[C@@H](CCC(=O)O)C(=O)O)cc1 [METHOTREXATE]; assay: as above; conditions: exposure time: 5 days
How it was run: as §1

Row | Test System | surviving fraction (PLX-4720; 0.5 nM) | surviving fraction (PLX-4720; 1 nM) | surviving fraction (PLX-4720; 5 nM) | surviving fraction (PLX-4720; 10 nM) | surviving fraction (PLX-4720; 50 nM) | surviving fraction (PLX-4720; 100 nM) | surviving fraction (PLX-4720; 500 nM) | surviving fraction (PLX-4720; 1000 nM) | surviving fraction (METHOTREXATE; 0.5 nM) | surviving fraction (METHOTREXATE; 1 nM) | surviving fraction (METHOTREXATE; 5 nM) | surviving fraction (METHOTREXATE; 10 nM) | surviving fraction (METHOTREXATE; 50 nM) | surviving fraction (METHOTREXATE; 100 nM) | surviving fraction (METHOTREXATE; 500 nM) | surviving fraction (METHOTREXATE; 1000 nM)
1 | CASKI CERVIX | 0.795 ± 0.091 | 0.809 ± 0.029 | 0.847 ± 0.045 | 0.848 ± 0.033 | 0.97 ± 0.02 | 1.02 ± 0.033 | 0.998 ± 0.045 | 1.02 ± 0.058 | 0.941 ± 0.045 | 0.892 ± 0.058 | 0.946 ± 0.073 | 0.967 ± 0.031 | 0.533 ± 0.019 | 0.2303 ± 0.0015 | 0.192 ± 0.018 | 0.208 ± 0.027
2 | CHLA90 AUTONOMIC GANGLIA | 0.333 ± 0.039 | 0.922 ± 0.041 | 0.753 ± 0.041 | 0.929 ± 0.044 | 0.371 ± 0.013 | 0.94 ± 0.018 | 0.98 ± 0.049 | 1.07 ± 0.061 | 1.037 ± 0.006 | 1.01 ± 0.084 | 1 ± 0.035 | 0.995 ± 0.037 | 1.08 ± 0.11 | 1.13 ± 0.12 | 1.16 ± 0.11 | 1.19 ± 0.033
3 | CME SYNOVIAL | 0.101 ± 0.0087 | 0.904 ± 0.082 | 0.732 ± 0.072 | 0.945 ± 0.23 | 0.217 ± 0.021 | 1.24 ± 0.14 | 1.02 ± 0.14 | 1.12 ± 0.044 | 1.2 ± 0.098 | 1.12 ± 0.069 | 0.755 ± 0.15 | 0.558 ± 0.062 | 0.612 ± 0.019 | 0.612 ± 0.034 | 0.561 ± 0.048 | 0.648 ± 0.046
4 | COLO320DM LARGE INTESTINE | 0.376 ± 0.022 | 0.996 ± 0.12 | 0.921 ± 0.08 | 1.07 ± 0.11 | 0.462 ± 0.075 | 1.07 ± 0.086 | 1.03 ± 0.088 | 0.979 ± 0.079 | 1.05 ± 0.045 | 1.04 ± 0.02 | 1.09 ± 0.056 | 0.648 ± 0.066 | 0.315 ± 0.011 | 0.315 ± 0.0081 | 0.307 ± 0.0097 | 0.295 ± 0.027
5 | DU4475 BREAST | 0.783 ± 0.23 | 0.699 ± 0.14 | 0.791 ± 0.16 | 0.741 ± 0.1 | 0.597 ± 0.19 | 0.603 ± 0.17 | 0.0833 ± 0.03 | 0.0277 ± 0.0075 | 0.815 ± 0.2 | 0.988 ± 0.11 | 0.943 ± 0.16 | 0.933 ± 0.11 | 1.02 ± 0.049 | 1.09 ± 0.092 | 1.03 ± 0.13 | 1.01 ± 0.032
6 | H23 LUNG | 0.873 ± 0.037 | 0.943 ± 0.057 | 0.93 ± 0.055 | 0.968 ± 0.068 | 0.971 ± 0.028 | 1.06 ± 0.018 | 1.06 ± 0.044 | 1.17 ± 0.014 | 1.06 ± 0.054 | 0.996 ± 0.068 | 1.01 ± 0.062 | 0.461 ± 0.084 | 0.254 ± 0.015 | 0.236 ± 0.022 | 0.236 ± 0.016 | 0.222 ± 0.014
7 | HCC38 BREAST | 0.812 ± 0.15 | 0.836 ± 0.19 | 0.893 ± 0.14 | 0.911 ± 0.17 | 1.03 ± 0.11 | 1.05 ± 0.28 | 1.12 ± 0.1 | 1.03 ± 0.28 | 1.39 ± 0.32 | 1.22 ± 0.13 | 1.37 ± 0.2 | 1.43 ± 0.15 | 1.05 ± 0.28 | 0.803 ± 0.038 | 0.385 ± 0.086 | 0.359 ± 0.032
8 | HCC70 BREAST | 1.02 ± 0.06 | 0.984 ± 0.14 | 1.04 ± 0.034 | 1.02 ± 0.034 | 1.03 ± 0.068 | 1.03 ± 0.091 | 1.03 ± 0.12 | 0.963 ± 0.082 | 1.04 ± 0.079 | 1.14 ± 0.092 | 1.01 ± 0.09 | 1.12 ± 0.046 | 0.842 ± 0.043 | 0.789 ± 0.023 | 0.763 ± 0.025 | 0.787 ± 0.041
9 | HCC78 LUNG | 0.318 ± 0.06 | 1.01 ± 0.17 | 0.964 ± 0.06 | 1.05 ± 0.3 | 0.761 ± 0.13 | 1.01 ± 0.077 | 0.869 ± 0.04 | 0.951 ± 0.12 | 1 ± 0.064 | 0.847 ± 0.19 | 0.914 ± 0.12 | 0.831 ± 0.13 | 0.503 ± 0.056 | 0.448 ± 0.058 | 0.421 ± 0.032 | 0.41 ± 0.039
10 | HCC202 BREAST | 0.964 ± 0.1 | 1.22 ± 0.12 | 1.08 ± 0.17 | 1.09 ± 0.046 | 1.2 ± 0.11 | 1.46 ± 0.26 | 1.12 ± 0.28 | 1.06 ± 0.33 | 1.3 ± 0.45 | 1.26 ± 0.38 | 1.21 ± 0.097 | 1 ± 0.25 | 1.14 ± 0.16 | 1.16 ± 0.37 | 0.945 ± 0.21 | 1.15 ± 0.13

From the supplement of paper PMC6045584
